Test system: MV-4-11 cells
Assay: Gene expression microarray analysis (Affymetrix PrimeView) and GSEA
Assay type: cell-based, human
Design: RFU PODN (11730768_x_at) / Fold change /veh PODN (11730768_x_at) / RFU LINC00158 (11744669_a_at) / Fold change /veh LINC00158 (11744669_a_at) / RFU DUSP10 (11751237_a_at) / Fold change /veh DUSP10 (11751237_a_at) / RFU ID3 (11757404_x_at) / Fold change /veh ID3 (11757404_x_at) / RFU PLEKHG5 (11737974_s_at) / Fold change /veh PLEKHG5 (11737974_s_at) / RFU LRRC4B (11730491_at) / Fold change /veh LRRC4B (11730491_at) / RFU GIMAP4 (11747438_a_at) / Fold change /veh GIMAP4 (11747438_a_at) / RFU KRT8 (11758183_x_at) / Fold change /veh KRT8 (11758183_x_at) / RFU CNN1 (11734310_a_at) / Fold change /veh CNN1 (11734310_a_at) / RFU VPS37D (11726825_at) / Fold change /veh VPS37D (11726825_at) / RFU C10orf10 (11716522_x_at) / Fold change /veh C10orf10 (11716522_x_at) / RFU KIR2DL2 /// KIR2DL4 /// KIR2DL5A /// KIR2DL5B /// KIR2DS1 /// KIR2DS2 /// KIR2DS3 /// KIR2DS4 /// KIR3DL3 /// KIR3DL3 /// KIR3DS1 (11738374_at) / Fold change /veh KIR2DL2 /// KIR2DL4 /// KIR2DL5A /// KIR2DL5B /// KIR2DS1 /// KIR2DS2 /// KIR2DS3 /// KIR2DS4 /// KIR3DL3 /// KIR3DL3 /// KIR3DS1 (11738374_at) / RFU C1QL1 (11718748_at) / Fold change /veh C1QL1 (11718748_at) / RFU TMPRSS4 (11747572_a_at) / Fold change /veh TMPRSS4 (11747572_a_at) / RFU HAMP (11756126_x_at) / Fold change /veh HAMP (11756126_x_at) / RFU RNFT2 (11725882_a_at) / Fold change /veh RNFT2 (11725882_a_at) / RFU NR4A2 (11747474_a_at) / Fold change /veh NR4A2 (11747474_a_at) / RFU ABCC12 (11746883_a_at) / Fold change /veh ABCC12 (11746883_a_at) / RFU TMEM136 (11760407_x_at) / Fold change /veh TMEM136 (11760407_x_at) / RFU CLDN22 /// WWC2 (11732394_at) / Fold change /veh CLDN22 /// WWC2 (11732394_at) / RFU HLA-DPB1 (11760878_x_at) / Fold change /veh HLA-DPB1 (11760878_x_at) / RFU SPINT1 (11716480_a_at) / Fold change /veh SPINT1 (11716480_a_at) / RFU GAP43 (11754022_s_at) / Fold change /veh GAP43 (11754022_s_at) / RFU A4GNT (11735810_at) / Fold change /veh A4GNT (11735810_at) / RFU PRB3 (11715151_x_at) / Fold change /veh PRB3 (11715151_x_at) / RFU TUBB4B (11761932_at) / Fold change /veh TUBB4B (11761932_at) / RFU CAPN14 (11732068_a_at) / Fold change /veh CAPN14 (11732068_a_at) / RFU TMCC2 (11721928_a_at) / Fold change /veh TMCC2 (11721928_a_at) / RFU IRGQ (11745062_a_at) / Fold change /veh IRGQ (11745062_a_at) / RFU FAM174B (11720279_a_at) / Fold change /veh FAM174B (11720279_a_at) / RFU TMPRSS4 (11748680_a_at) / Fold change /veh TMPRSS4 (11748680_a_at) / RFU FAM212B (11763350_a_at) / Fold change /veh FAM212B (11763350_a_at) / RFU PLEKHG5 (11743358_a_at) / Fold change /veh PLEKHG5 (11743358_a_at) / RFU ZSCAN30 (11745921_a_at) / Fold change /veh ZSCAN30 (11745921_a_at) / RFU CMKLR1 (11741424_a_at) / Fold change /veh CMKLR1 (11741424_a_at) / RFU LOC101060620 /// MAPK8IP1 (11723275_at) / Fold change /veh LOC101060620 /// MAPK8IP1 (11723275_at) / RFU SPTSSB (11747773_x_at) / Fold change /veh SPTSSB (11747773_x_at) / RFU PRSS12 (11739890_at) / Fold change /veh PRSS12 (11739890_at) / RFU BIN1 (11741810_x_at) / Fold change /veh BIN1 (11741810_x_at) / RFU WNT11 (11732464_a_at) / Fold change /veh WNT11 (11732464_a_at) / RFU C10orf10 (11716521_a_at) / Fold change /veh C10orf10 (11716521_a_at) / RFU C5orf56 (11738089_at) / Fold change /veh C5orf56 (11738089_at) / RFU CYB561 (11721691_x_at) / Fold change /veh CYB561 (11721691_x_at) / RFU ANKRD19P (11752326_a_at) / Fold change /veh ANKRD19P (11752326_a_at) / RFU OR2T12 /// OR2T33 /// OR2T8 (11738714_s_at) / Fold change /veh OR2T12 /// OR2T33 /// OR2T8 (11738714_s_at) / RFU VCAN (11748164_a_at) / Fold change /veh VCAN (11748164_a_at) / RFU JSRP1 (11732532_at) / Fold change /veh JSRP1 (11732532_at) / RFU KRTAP10-11 (11738290_x_at) / Fold change /veh KRTAP10-11 (11738290_x_at) / RFU MYO3A (11730013_a_at) / Fold change /veh MYO3A (11730013_a_at) / RFU EBF3 (11725865_a_at) / Fold change /veh EBF3 (11725865_a_at) / RFU CAMK2N1 (11719241_x_at) / Fold change /veh CAMK2N1 (11719241_x_at) / RFU C5orf56 (11738088_a_at) / Fold change /veh C5orf56 (11738088_a_at) / RFU OLFML3 (11715873_a_at) / Fold change /veh OLFML3 (11715873_a_at) / RFU LOC100653217 /// NTM (11731650_a_at) / Fold change /veh LOC100653217 /// NTM (11731650_a_at) / RFU MAPK11 (11762145_a_at) / Fold change /veh MAPK11 (11762145_a_at) / RFU FIZ1 (11724087_x_at) / Fold change /veh FIZ1 (11724087_x_at) / RFU OASL (11726364_x_at) / Fold change /veh OASL (11726364_x_at) / RFU SOX15 (11748057_x_at) / Fold change /veh SOX15 (11748057_x_at) / RFU CD79A (11719716_a_at) / Fold change /veh CD79A (11719716_a_at) / RFU HIST1H1D (11736915_at) / Fold change /veh HIST1H1D (11736915_at) / RFU CASKIN2 (11723855_a_at) / Fold change /veh CASKIN2 (11723855_a_at) / RFU LOC730098 (11760151_x_at) / Fold change /veh LOC730098 (11760151_x_at) / RFU OR4N2 (11742367_at) / Fold change /veh OR4N2 (11742367_at) / RFU PRRT2 (11749266_a_at) / Fold change /veh PRRT2 (11749266_a_at) / RFU SNX32 (11753110_a_at) / Fold change /veh SNX32 (11753110_a_at) / RFU CDHR5 (11726645_a_at) / Fold change /veh CDHR5 (11726645_a_at) / RFU RCAN1 (11760418_a_at) / Fold change /veh RCAN1 (11760418_a_at) / RFU FAM167A (11723789_a_at) / Fold change /veh FAM167A (11723789_a_at) / RFU FAM26E (11764081_at) / Fold change /veh FAM26E (11764081_at) / RFU ISYNA1 (11749810_s_at) / Fold change /veh ISYNA1 (11749810_s_at) / RFU ACY1 (11761880_at) / Fold change /veh ACY1 (11761880_at) / RFU 11764098_at / Fold change /veh 11764098_at / RFU SAMD14 (11745864_x_at) / Fold change /veh SAMD14 (11745864_x_at) / RFU NPB (11741838_a_at) / Fold change /veh NPB (11741838_a_at) / RFU TMPRSS6 (11731388_a_at) / Fold change /veh TMPRSS6 (11731388_a_at) / RFU KRTAP10-2 (11738614_at) / Fold change /veh KRTAP10-2 (11738614_at) / RFU ARHGAP8 /// PRR5-ARHGAP8 (11727945_x_at) / Fold change /veh ARHGAP8 /// PRR5-ARHGAP8 (11727945_x_at) / RFU KRTAP5-7 /// NADSYN1 (11734609_at) / Fold change /veh KRTAP5-7 /// NADSYN1 (11734609_at) / RFU RASL12 (11751679_a_at) / Fold change /veh RASL12 (11751679_a_at) / RFU CDKN2B (11736163_a_at) / Fold change /veh CDKN2B (11736163_a_at) / RFU PRF1 (11729649_at) / Fold change /veh PRF1 (11729649_at) / RFU, ZNF638 /// ZNF638-IT1 / Fold change vs veh, ZNF638 /// ZNF638-IT1 / RFU, PANK3 / Fold change vs veh, PANK3 / RFU, SH3YL1 / Fold change vs veh, SH3YL1 / RFU, ZEB2 / Fold change vs veh, ZEB2 / RFU, NRIP1 / Fold change vs veh, NRIP1 / RFU, PTTG1IP / Fold change vs veh, PTTG1IP / RFU, CAPN2 / Fold change vs veh, CAPN2 / RFU, MED14 / Fold change vs veh, MED14 / RFU, SNORA58 / Fold change vs veh, SNORA58 / RFU, C1orf63 / Fold change vs veh, C1orf63 / RFU, LRRFIP1 / Fold change vs veh, LRRFIP1 / RFU, NDUFAF7 / Fold change vs veh, NDUFAF7 / RFU, SLC12A2 / Fold change vs veh, SLC12A2 / RFU, IBTK / Fold change vs veh, IBTK / RFU, ESF1 / Fold change vs veh, ESF1 / Fold change vs veh, TMEM50B / RFU, TAOK1 / Fold change vs veh, TAOK1 / RFU, ACBD3 / Fold change vs veh, ACBD3 / RFU, TMA16 / Fold change vs veh, TMA16 / RFU, RWDD3 / Fold change vs veh, RWDD3 / RFU, BCAT1 / Fold change vs veh, BCAT1 / RFU, EDEM3 / Fold change vs veh, EDEM3 / RFU, TMEM33 / Fold change vs veh, TMEM33 / RFU, WDR75 / Fold change vs veh, WDR75 / RFU, AHCTF1 / Fold change vs veh, AHCTF1 / RFU, TFRC / Fold change vs veh, TFRC / RFU, ZDHHC17 / Fold change vs veh, ZDHHC17 / RFU, NOM1 / Fold change vs veh, NOM1 / RFU, ARL8B / Fold change vs veh, ARL8B / RFU, ZBTB11 / Fold change vs veh, ZBTB11 / RFU, TAMM41 / Fold change vs veh, TAMM41 / RFU, KIAA1704 /// LOC100996395 / Fold change vs veh, KIAA1704 /// LOC100996395 / RFU, ING1 / Fold change vs veh, ING1 / RFU, TRMT61B / Fold change vs veh, TRMT61B / RFU, FUBP3 / Fold change vs veh, FUBP3 / RFU, TP53 / Fold change vs veh, TP53 / RFU, TNKS2 / Fold change vs veh, TNKS2 / RFU, ZFP14 / Fold change vs veh, ZFP14 / RFU, ACTR2 / Fold change vs veh, ACTR2 / RFU, PPP3R1 / Fold change vs veh, PPP3R1 / RFU, PIK3R1 / Fold change vs veh, PIK3R1 / RFU, HNRNPA1 / Fold change vs veh, HNRNPA1 / RFU, RNF170 / Fold change vs veh, RNF170 / RFU, ZNF28 / Fold change vs veh, ZNF28 / RFU, RNGTT / Fold change vs veh, RNGTT / RFU, OGT / Fold change vs veh, OGT / RFU, BRD1 / Fold change vs veh, BRD1 / RFU, MARS / Fold change vs veh, MARS / RFU, ZNF655 / Fold change vs veh, ZNF655 / RFU, FAHD1 / Fold change vs veh, FAHD1 / RFU, BDP1 / Fold change vs veh, BDP1 / RFU, LRRCC1 / Fold change vs veh, LRRCC1 / RFU, ARID1A / Fold change vs veh, ARID1A / RFU, ZNF146 / Fold change vs veh, ZNF146 / RFU, ZNF330 / Fold change vs veh, ZNF330 / RFU, GPN3 / Fold change vs veh, GPN3 / RFU, C9orf123 / Fold change vs veh, C9orf123 / RFU, N4BP2L2 / Fold change vs veh, N4BP2L2 / RFU, ARFIP1 / Fold change vs veh, ARFIP1 / RFU, FAM179B / Fold change vs veh, FAM179B / RFU, BCL10 / Fold change vs veh, BCL10 / RFU, UHRF1BP1L / Fold change vs veh, UHRF1BP1L / RFU, BET1 / Fold change vs veh, BET1 / RFU, CNOT2 / Fold change vs veh, CNOT2 / RFU, ZNF268 / Fold change vs veh, ZNF268 / Fold change vs veh, ZNF507 / RFU, DGCR2 / Fold change vs veh, DGCR2 / RFU, WDSUB1 / Fold change vs veh, WDSUB1 / Fold change vs veh, HSP90B1 /// MIR3652 / RFU, ADSS / Fold change vs veh, ADSS / RFU, GK / Fold change vs veh, GK / RFU, ZNF148 / Fold change vs veh, ZNF148 / RFU, TAF9 / Fold change vs veh, TAF9 / RFU, SLC1A5 / Fold change vs veh, SLC1A5 / RFU, SLMO2 / Fold change vs veh, SLMO2 / RFU, ABCC4 / Fold change vs veh, ABCC4 / RFU, LOC101060439 /// RAP1B / Fold change vs veh, LOC101060439 /// RAP1B / RFU, RFX7 / Fold change vs veh, RFX7 / RFU, GTPBP10 / Fold change vs veh, GTPBP10 / RFU, CNEP1R1 / Fold change vs veh, CNEP1R1 / RFU, BIVM-ERCC5 /// ERCC5 / Fold change vs veh, BIVM-ERCC5 /// ERCC5 / RFU, ILF3 / Fold change vs veh, ILF3 / RFU 11762660_at / Fold change /veh 11762660_at / RFU VCAN (11757783_s_at) / Fold change /veh VCAN (11757783_s_at) / RFU DDX43 (11728927_at) / Fold change /veh DDX43 (11728927_at) / RFU KRT8 (11758188_x_at) / Fold change /veh KRT8 (11758188_x_at) / RFU NKD1 (11759106_at) / Fold change /veh NKD1 (11759106_at) / RFU SRD5A1 (11742802_a_at) / Fold change /veh SRD5A1 (11742802_a_at) / RFU TPSAB1 /// TPSB2 (11721975_s_at) / Fold change /veh TPSAB1 /// TPSB2 (11721975_s_at) / RFU GSTM3 (11746129_a_at) / Fold change /veh GSTM3 (11746129_a_at) / RFU IL23R (11737362_x_at) / Fold change /veh IL23R (11737362_x_at) / RFU TMEM51 (11727254_a_at) / Fold change /veh TMEM51 (11727254_a_at) / RFU PIWIL2 (11732686_x_at) / Fold change /veh PIWIL2 (11732686_x_at) / RFU ORM1 (11744905_x_at) / Fold change /veh ORM1 (11744905_x_at) / RFU CCDC152 (11743942_at) / Fold change /veh CCDC152 (11743942_at) / RFU ECM1 (11717891_a_at) / Fold change /veh ECM1 (11717891_a_at) / RFU IL23R (11748794_a_at) / Fold change /veh IL23R (11748794_a_at) / RFU TNFAIP8L3 (11732012_x_at) / Fold change /veh TNFAIP8L3 (11732012_x_at) / RFU MBOAT4 (11741988_at) / Fold change /veh MBOAT4 (11741988_at) / RFU 11764193_at / Fold change /veh 11764193_at / RFU TMEM53 (11763286_at) / Fold change /veh TMEM53 (11763286_at) / RFU MAGEB2 (11727129_at) / Fold change /veh MAGEB2 (11727129_at) / RFU TMEM200A (11744735_a_at) / Fold change /veh TMEM200A (11744735_a_at) / RFU CCDC152 (11751479_a_at) / Fold change /veh CCDC152 (11751479_a_at) / RFU FAM211A (11726209_a_at) / Fold change /veh FAM211A (11726209_a_at) / RFU RGS16 (11746705_a_at) / Fold change /veh RGS16 (11746705_a_at) / RFU VCAN (11755009_s_at) / Fold change /veh VCAN (11755009_s_at) / RFU RHOB (11743442_s_at) / Fold change /veh RHOB (11743442_s_at) / RFU RGS16 (11720943_a_at) / Fold change /veh RGS16 (11720943_a_at) / RFU RGS16 (11720944_at) / Fold change /veh RGS16 (11720944_at) / RFU, VPS4B / Fold change vs veh, VPS4B / RFU, CREB1 / Fold change vs veh, CREB1 / RFU, DNAJC13 / Fold change vs veh, DNAJC13 / RFU, GNAQ / Fold change vs veh, GNAQ / RFU, CDK5R1 / Fold change vs veh, CDK5R1 / RFU, ZRANB3 / Fold change vs veh, ZRANB3 / RFU, CUL4A / Fold change vs veh, CUL4A / RFU, CCNY / Fold change vs veh, CCNY / RFU, UFL1 / Fold change vs veh, UFL1 / RFU, COG3 / Fold change vs veh, COG3 / RFU, DIAPH2 / Fold change vs veh, DIAPH2 / RFU, SKA2 / Fold change vs veh, SKA2 / RFU, AFF3 / Fold change vs veh, AFF3 / RFU, LMF1 / Fold change vs veh, LMF1 / RFU, IPO11 / Fold change vs veh, IPO11 / RFU, DFFB / Fold change vs veh, DFFB / RFU, FOXP1 / Fold change vs veh, FOXP1 / RFU, CARD8 / Fold change vs veh, CARD8 / RFU, STRN3 / Fold change vs veh, STRN3 / RFU, ADK / Fold change vs veh, ADK / RFU, RASSF2 / Fold change vs veh, RASSF2 / RFU, WIPF1 / Fold change vs veh, WIPF1 / RFU, LARP1B / Fold change vs veh, LARP1B / RFU, RASA1 / Fold change vs veh, RASA1 / RFU, RB1 / Fold change vs veh, RB1 / RFU, PPFIA1 / Fold change vs veh, PPFIA1 / RFU, MAT2A / Fold change vs veh, MAT2A / RFU, CCT5 / Fold change vs veh, CCT5 / RFU, WDR92 / Fold change vs veh, WDR92 / RFU, CUX1 / Fold change vs veh, CUX1 / RFU, TTC7A / Fold change vs veh, TTC7A / RFU, TMEM135 / Fold change vs veh, TMEM135 / RFU, DEPTOR / Fold change vs veh, DEPTOR / RFU, CPM / Fold change vs veh, CPM / RFU, DNAJB6 / Fold change vs veh, DNAJB6 / RFU, CACNA2D3 / Fold change vs veh, CACNA2D3 / RFU, DTX4 / Fold change vs veh, DTX4 / RFU, TFCP2 / Fold change vs veh, TFCP2 / RFU, GMCL1 /// GMCL1P1 / Fold change vs veh, GMCL1 /// GMCL1P1 / RFU, AEBP2 / Fold change vs veh, AEBP2 / RFU, SNHG1 /// SNORD22 /// SNORD25 /// SNORD26 /// SNORD27 /// SNORD28 /// SNORD29 /// SNORD31 / Fold change vs veh, SNHG1 /// SNORD22 /// SNORD25 /// SNORD26 /// SNORD27 /// SNORD28 /// SNORD29 /// SNORD31 / Fold change (Aza/veh), C12orf56 (ProbeSet 11735607_a_at) / Fold change (ACY-1035/veh), C12orf56 (ProbeSet 11735607_a_at) / Fold change (Aza/veh), FGFR1OP (ProbeSet 11751329_s_at) / Fold change (ACY-1035/veh), FGFR1OP (ProbeSet 11751329_s_at) / Fold change (Aza/veh), VPS36 (ProbeSet 11739960_a_at) / Fold change (ACY-1035/veh), VPS36 (ProbeSet 11739960_a_at) / RFU SYPL1 (11715823_x_at) / Fold change /veh SYPL1 (11715823_x_at) / RFU IGFBP7 (11715501_s_at) / Fold change /veh IGFBP7 (11715501_s_at) / RFU REEP3 (11722064_at) / Fold change /veh REEP3 (11722064_at) / RFU IGLL1 (11728026_x_at) / Fold change /veh IGLL1 (11728026_x_at): dose or concentration left out as unconfirmed
Conditions: ProbeSet 11732281_s_at; LIST D

**Q.** Which “Fold change vs veh, FOXP1” value does the source give for `Nc1ccc(-c2cccs2)cc1NC(=O)c1ccc2c(c1)cc(C1CC1)n2CCN1CCOCC1` [ACY-1035] here?
**A.** The value was 0.88.
